The values below come from ChEMBL document CHEMBL5113481, “Design, synthesis and biological evaluation of quinoline-2-carbonitrile-based hydroxamic acids as dual tubulin polymerization and histone deacetylases inhibitors” (Eur J Med Chem, 2022).

Usually IC50 stands for the concentration needed to halve the response being measured. What is called GI50 is the concentration that inhibits growth by half. Lower therefore signals more potent growth inhibition. As a reminder, the solubility is how much of the substance goes into solution per volume. Lower therefore signals little dissolved substance.

For one series, the system named is NCI-N87. The experiment in a line: Antiproliferative activity against human NCI-N87 cells after 72 hrs by CellTiter Glo assay. As to conditions: NCI-N87, 72 h. The class given is functional, cell-based.
Another series concerns HCT-116. Nature of the series: Antiproliferative activity against human HCT-116 cells after 72 hrs by CellTiter Glo assay. The class given is functional, cell-based. As to conditions: Homo sapiens, HCT-116; time 72 hrs.
In another series the test system is MIA PaCa-2. The experiment in a line: Antiproliferative activity against human MIA PaCa-2 cells after 72 hrs by CellTiter Glo assay. The class given is functional, cell-based. As to conditions: MIA PaCa-2, 72 h. In general terms: In ATP-based viability assays light output follows the ATP content of the culture.
Another series relates to SK-OV-3. Nature of the series: Antiproliferative activity against human SK-OV-3 cells after 72 hrs by CellTiter Glo assay. The class given is functional, cell-based. As to conditions: SK-OV-3, 72 h.
The next series relates to MCF7. The experiment in a line: Antiproliferative activity against human MCF7 cells after 72 hrs by CellTiter Glo assay. The series is classed as functional, cell-based. The following applies: MCF7, 72 h.
Another series relates to MDA-MB-231. The experiment in a line: Antiproliferative activity against human MDA-MB-231 cells after 72 hrs by CellTiter Glo assay. The class given is functional, cell-based. As to conditions: MDA-MB-231, 72 h.
The subject of series [1] is HT-29. Nature of the series: Antiproliferative activity against human HT-29 cells after 72 hrs by CellTiter Glo assay. The series is classed as functional, cell-based. The following applies: HT-29, 72 h.
In series [2] the test system is HT-29. Nature of the series: Cell cycle arrest in human HT-29 cells assessed as accumulation of cells in G2/M phase at 5 nM measured after 24 hrs by PI staining based flow cytometry method. The class given is functional. Background: Flow cytometry measures light scatter and fluorescence of single cells or particles in a stream.
For a further series, the target named is T1, Histone deacetylase 8 (Homo sapiens, UniProt Q9BY41).
T1 sequence (Q9BY41 whole entry): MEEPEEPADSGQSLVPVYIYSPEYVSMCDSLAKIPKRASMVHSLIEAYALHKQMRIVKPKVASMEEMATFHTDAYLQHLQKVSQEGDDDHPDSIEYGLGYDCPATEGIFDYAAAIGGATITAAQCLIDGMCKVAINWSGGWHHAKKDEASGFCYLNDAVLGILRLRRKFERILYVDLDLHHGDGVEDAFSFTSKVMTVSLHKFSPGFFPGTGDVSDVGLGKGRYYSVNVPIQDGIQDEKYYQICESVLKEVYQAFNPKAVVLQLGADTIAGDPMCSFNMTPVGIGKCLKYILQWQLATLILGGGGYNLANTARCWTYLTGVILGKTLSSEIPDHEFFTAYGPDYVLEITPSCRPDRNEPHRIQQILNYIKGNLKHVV
Nature of the series: Inhibition of HDAC8 (unknown origin) measured by fluorometry assay.

For series [3], the system named is HT-29. Nature of the series: Induction of DNA damage in human HT-29 cells at 0.5 to 10 nM assessed as increase in gamma-H2AX level and measured after 24 hrs by Western blot analysis. The class given is functional, cell-based. The following applies: dose 0.5-10 nM. Background: Immunoblotting shows a protein as a band on a membrane.
The target in series [4] is T2, Histone deacetylase 8 (Homo sapiens) (UniProt Q9BY41).
T2 sequence (whole entry): T1 sequence (Q9BY41 whole entry)
The experiment in a line: Inhibition of HDAC8 in human HT-29 cells assessed as increase in SMC3 acetylation at 0.5 to 100 nM measured after 30 mins by western blot analysis. The class given is cell-based. The following applies: dose 0.5-100 nM.

A further series addresses Tubulin (Homo sapiens) (UniProt P68371+Q9H4B7+P0DPH7+P68366+Q13509+Q71U36+P04350+Q3ZCM7+P07437+P68363+Q9BQE3+Q6PEY2+Q13885+Q9BVA1+Q9BUF5). Nature of the series: Inhibition of tubulin polymerization in human MDA-MB-231 cells assessed as microtubule network polymerization at 250 nM after 30 mins by immunofluorescence analysis. The class given is cell-based.
In the next series the target is Tubulin. The experiment in a line: Inhibition of tubulin polymerization in human HeLa cells assessed as microtubule network polymerization after 30 mins by immunofluorescence analysis. The series is classed as cell-based.
Series [5] can be described thus: Solubility of compound in water. The series is classed as physicochemical.
Series [6] in a line: Metabolic stability in rat liver microsomes assessed as intrinsic clearance per mg protein measured upto 6 hrs in presence of NADPH generating system by HPLC-MS/MS analysis. The following applies: read-out: CLH. The series is classed as ADME, Microsome.
The nature of series [7]: Metabolic stability in human liver microsomes assessed as intrinsic clearance per mg protein measured upto 6 hrs in presence of NADPH generating system by HPLC-MS/MS analysis. The following applies: read-out: CLH. The series is classed as ADME, Microsome.
Series [8] in a line: Antiproliferative activity against mouse MCA-205 cells after 72 hrs by CellTiter Glo assay. The following applies: MCA-205, 72 h. The series is classed as functional, cell-based.
A short description of series [9]: Antitumor activity against mouse MCA-205 cells allografted in female C57BL/6 mouse assessed as increase in overall survival at 0.25 to 0.5 mg/kg, IT(Intratumoral). The class given is functional. As to conditions: dose lower […], dose upper 0.5 mg/kg.
A further series concerns MCA-205. The experiment in a line: Antitumor activity against mouse MCA-205 cells allografted in female C57BL/6 mouse assessed as complete tumor regression at 0.5 mg/kg, IT(Intratumoral). The class given is functional, organism-based.
A short description of series [10]: Antitumor activity against mouse MCA-205 cells allografted in female C57BL/6 mouse assessed as tumor regression at […], IT(Intratumoral). The series is classed as functional.

Converted amounts (≈) assume the structure as drawn. The source made the active and inactive calls. The rule behind the calls is not given here.

On to `COc1ccc(N(C)c2cc(C#N)nc3ccccc23)cc1/C=C/C(=O)NO`, for which the IC50 in the series on NCI-N87 was 0.1 nM; in the series on MIA PaCa-2 it was 0.94 nM; in the series on SK-OV-3, 0.6 nM; with MCF7, 0.78 nM; in the series with MDA-MB-231, 0.7 nM; in the series with HT-29 [1], 0.62 nM. In addition, the figures for the IC50 (on Histone deacetylase 8; on Tubulin; in [8]) were 150 nM, 20 nM and 2.78 nM, respectively. In the series on HCT-116, this compound had a GI50 of 0.5 nM. In addition, the values for the Activity (in the series with HT-29 [2]; in [9]; in series [10]) were >95%, 60% and 40%, respectively. For the same compound, the result in the series on HT-29 [3] and in the series with MCA-205 was Active. Besides, the inhibition entry (in [4]; at Tubulin (Homo sapiens)) was “Active” each time. For the same compound, the solubility in series [5] was 68.7 µg/mL (≈ 183 µM). For the same compound, the microsomal CLint in series [6] amounted to 1.75 µL/min/mg; in series [7] it was 0.36 µL/min/mg.
